Measured values reported in patent publication US11045519B2, “Arginine-rich polypeptide compositions and methods of using same” (UNM Rainforest Innovations, priority 2017, dated 2021).

Assays:
[1] = test system: HPV16 PsVs; assay: Direct pre-incubation of HPV16 PsVs with peptide, dilution below IC50, then infection of HaCaT cells; type: cell-based; settings: 0.3 μM, 1 h 37° C., diluted 1500-fold, HaCaT cells 24 h
Procedure: FIG. 3. […] HPV16 PsVs were incubated with 0.3 μM polyR for one hour at 37° C. The virus-polyR mixture was diluted with CM to reduce the polyR concentration below the IC50 value prior to incubation with HaCaT cells for 24 hours (HPV16-polyR). The control included untreated HPV16 PsVs (HPV16) added to HaCaT cells. Infection was measured after 24-hour incubation.
FIG. 15. Direct interaction of PrS to HPV16 PsVs. HPV16 PsVs were incubated with 1 μM PrS or HA:PrS complex for one hour at 37° C. Virus-PrS/or HA:PrS mixture was diluted with CM in order to reduce the PrS concentration below the IC50 value, and incubated with HaCaT cells for 24 hours. The control included untreated HPV16 PsVs. Infection was measured after 24 hours incubation as described in FIG. 12.
Typically, direct interaction of cationic inhibitors with the viral capsids of non-enveloped viruses (including HPV) is sufficient for antiviral activity. To determine whether polyR inhibited HPV16 infectivity by direct interaction with viral capsids, HPV16 PsVs were incubated with […] for one hour at 37° C. The virus-polyR mixture was diluted 1500-fold to reduce the polyR concentration below the IC50 value, then incubated with HaCaT cells. The control included cells exposed to HPV PsVs that were not treated with polyR. […]

[2] = test system: HPV16 PsVs; assay: HPV16 PsV binding to HaCaT cells at 4° C. (L1 immunoblot / immunofluorescence); type: cell-based
Procedure: FIG. 4. PolyR treatment of host cells inhibits HPV16 binding to cells. (A) Confluent HaCaT cell monolayers were treated with 1 μM polyR (in CM) for 30 minutes, before adding 100 vge/cell HPV16 PsVs, and incubated at 4° C. for one hour (to promote binding but prevent virus internalization). After washing out of unbound virus, cells were lysed (25 mM Tris pH7.5, 150 mM NaCl, 1% Triton-X100 supplemented with protease inhibitors) and centrifuged at 16,000×g for 10 minutes. Protein concentrations in supernatant were measured using the Bradford method (Bio-Rad Laboratories, Inc., Hercules, Calif.). Samples were boiled in SDS-containing sample buffer, and aliquots containing equal amount of protein ([…] to 200 μg) separated by SDS-polyacrylamide gel electrophoresis (SDS-PAGE), using 10% gel. Proteins were transferred onto polyvinylidene difluoride (PVDF) membranes and subjected to analysis using anti-HPV16 L1 primary antibody (Camvir-1, sc-47699, Santa Cruz Biotechnology, Inc., Dallas, Tex.;1:5000 dilution) for detection of HPV16 major capsid protein, L1. Proteins were visualized by enhanced chemiluminescence (SUPERSIGNAL West Pico Chemiluminescent Substrate, Thermo Fisher Scientific, Inc., Waltham, Mass.) and exposed to film (Phenix Research Products, Candler, N.C.). (B) Immunofluorescence assays were performed essentially as described previously (Surviladze et al., 2012. PLoS Pathogens 8:e1002519). HaCaT cells were grown on coverslips at approximately 50% confluence and treated with 3 μM polyR for 30 minutes at 37° C. before the addition of 1000 vge of HPV16 PsVs per coverslip. Cells were incubated for one hour at 4° C. and washed several times with PBS, before the fixation with 4% paraformaldehyde (PFA). BSA-blocked cells were incubated with rabbit polyclonal HPV16 antibody (antibody was affinity-purified from rabbit anti-HPV VLP antisera). PBS-washed slides were incubated with donkey AF488-conjugated anti-rabbit IgG secondary antibody; phalloidin-rhodamine (Cytoskeleton, Inc., Denver, Colo.) was used for actin staining. After extensive washing with PBS, cells were mounted in Gold Antifade and immunofluorescent (IF) images were captured by confocal photo-microscopy.
(A) HPV16 PsVs were bound to HaCaT cells (one hour at 4° C.), before the addition of […]. After a one-hour incubation at 4° C., unbound virus was washed out, cells were lysed and analyzed for the content of HPV L1 protein. (B) HaCaT cells were exposed to HPV 16 PsV at 4° C. in the absence of polyR, simultaneously with polyR (0 h), or one hour after polyR treatment (+1 h). After extensive washing with PBS, cells were lysed and analyzed for the content of HPV16 L1 protein.
FIG. 16. PrS pretreated cells binding of HPV16. Confluent HaCaT cell monolayers were treated with 1 μM PrS (in CM) before the addition of 200 vge/cell HPV16 PsVs and incubated at 4° C. for one hour (conditions to prevent virus internalization). After washing out of unbound virus, cells were lysed (25 mM Tris pH7.5, 150 mM NaCl, 1% Triton-X100 supplemented with protease inhibitors) and centrifuged at 16,000×g for 10 minutes. Protein concentrations in supernatant were measured using the Bradford method (Bio-Rad Laboratories, Inc., Hercules, Calif.). Samples were boiled in SDS-containing sample buffer, and aliquots containing equal amount of protein (˜50 μg to 200 μg) separated by SDS-polyacrylamide gel electrophoresis (SDS-PAGE) using 10% gel. […]

poly-L-arginine [polyR] was tested, and the “effect of pre-incubation of HPV16 PsVs on infection” value [1] was “did not inhibit infection to a statistically significant degree”, the “HPV16 binding to pre-treated cells (L1 immunoblot)” value ([2]; 1 μM, 30 min pre-treatment, 100 vge/cell, 4° C. 1 h) was “almost completely blocked HPV16 binding” and the “HPV16 bound to cell surface (confocal microscopy)” value ([2]; 3 μM, 30 min pre-treatment, 4° C. 1 h) was “dramatically reduced detection of HPV bound to the cell surface”. For the same substance, the “reduction of HPV binding to cells” value ([2]; polyR and HPV added simultaneously, 4° C.) was “≈ 50%”.
